Patent publication US5466717A, “Halogenated 4'-methoxyacetophenones as microbicides and preservatives” (Buckman Laboratories Int'l, Inc., priority 1993, dated 1995)
Converted amounts (≈) assume the structure as drawn. Where two headings read alike, the source gives them in different places.

Key:
[1] = tested on: Pseudomonas aeruginosa, Enterobacter serogenes and Bacillus subtilus; test: Preservation of acrylic latex paint, 9 week multiple challenge test (Table 1); assay type: cell-based; design: key: 0: no growth was observed; +: less than 10 colonies were observed; ++: 10 or more colonies were observed
Method: The preservative effectiveness of compounds 1 and 2 was determined in a freshly prepared water-based paint formulated with titanium dioxide and calcium carbonate as pigments, an acrylic resin emulsion, dispersants, and hydroxyethyl cellulose as a thickener. The pH of this paint was approximately 9.0. […] One hundred gram samples of the test paints were challenged initially and at the end of the third and sixth weeks in a three-challenge, nine-week test with 1.0 milliliter of […] containing Pseudomonas aeruginosa, Enterobacter serogenes and Bacillus subtilus at a level of approximately 1.5×10^6 organisms per milliliter. After vigorous shaking, the inoculated paint was incubated at 28° C. Growth in system was monitored by streaking a sample of each test paint onto a nutrient agar on plates at intervals of 1 day, 2 days, 3 days, 7 days, and 21 days after each challenge. The streaked plates were incubated at 37° C. and examined for bacterial growth after 24 hours (challenge 1). A second sample of the same inoculated paint was rechallenged at the end of 21 days (challenge 2) and again at the end of 42 days (challenge 3).

Chlorella pyrenoidosa = test: Growth inhibition of algae in Difco Algae Broth (Table 6); assay type: cell-based; conditions: Auxenochlorella pyrenoidosa, 672 h, read-out: Minimum inhibitory concentration
Method: The growth-inhibiting activity of the method of the invention against the algae Chlorella pyrenoidosa was evaluated at two different pH levels in Difco Algae Broth. The content of the broth was as follows: Forty-gram portions of the algae medium were added to 250 mL Erlenmeyer flasks fitted with loose metal caps and were then sterilized. Each of the following substances was then added to the flasks in the order listed: (1) Sterile algae medium as required to bring the total weight of the contents of each flask to 50 grams, after allowing for all subsequent additions specified below. (2) A solution of the toxicant or of a control agent to be evaluated in each test, to give the concentration desired in parts per million by weight. (3) Chlorella pyrenoidosa, in amounts sufficient to give excellent growth in the controls after 14 days. This was achieved by adding 1 milliliter of a 14 day old culture having luxuriant growth. The Chlorella pyrenoidosa culture was obtained from American Type Culture Collection No. 7516. Control experiments were carried out where no toxicants were employed. In the algicidal tests the growth of algae in the nutrient is lush green and can be seen with the naked eye. Since the minimum inhibitory concentrations of the compounds in this example are those which result in complete inhibition, evaluation of the test results is not subjective. After the inoculum of the test algae was added, the flasks were incubated at a temperature of 28°±2° C. under fluorescent illumination of 250 foot-candle intensity (8 hours light, 16 hours darkness) for a period adequate for growth in the controls (those portions of medium which contained no toxicant). Observations of growth were made at 7-day intervals. Minimum inhibitory concentrations are those that prevented complete growth after 28 days.

[2] = tested on: Aspergillus sp., Aureobasidium sp., Trichoderma sp., Penicillium sp., and Chaetomium sp.; test: Resistance to growth of mold on the surface of interior coatings in an environmental chamber, ASTM D3273-86 (Table 4); design: key: 10: no mold growth; 9: very slight mold growth; 8: slight growth; 7: slight to medium growth; 6: slight to medium growth; 5: failure (extensive growth)
Method: A standard method to determine the resistance to growth of mold on the surface of interior coatings in an environmental chamber, ASTM method D3273-86, was used to determine the effectiveness of compounds 1 and 2.
Treatments were prepared by dissolving 2.0 g of the compounds of the present invention in 10 mL of acetone/methanol. Two types of paint were used: namely, an alkyd (self-priming white with Beckasol 296-70) and a latex (self-priming, alkyd-modified acrylic paint). […] Each sample was shaken vigorously for 5 minutes using a standard paint shaker.
Blocks of drywall having two inch by four inch dimensions were painted on the front surface and on all edges with two coats of the respective treatments. After drying, the back side was painted with one coat of clear latex. A hole was drilled half-way through the block at one end, and duplicate blocks per treatment were hung in an environmental chamber.
The aggressive nature of the interior of the chamber was developed by inoculating trays of moist potting soil with active cultures of Aspergillus sp., Aureobasidium sp., Trichoderma sp., Penicillium sp., and Chaetomium sp. The chamber was maintained at 100 percent relative humidity and 32° C. Final observations were made after four weeks (for latex blocks) or eight weeks (for alkyd blocks).

Enterobacter aerogenes = test: Pulp substrate method, percent kill of E. aerogenes (Table 2); assay type: cell-based; conditions: for killing at 1 ppm / killing at 2 ppm / killing at 4 ppm / killing at 8 ppm / killing at 10 ppm / killing at 15 ppm / killing at 20 ppm / killing at 25 ppm: Klebsiella aerogenes, pulp substrate, read-out: % Kill of E. aerugenes
Method: Compounds 1 and 2 were tested by the pulp substrate method described in detail in U.S. Pat. No. 2,881,070, column 5, line 12--column 6, line 53. The disclosure of U.S. Pat. No. 2,881,070 is specifically incorporated here by reference. […] The tests utilized Enterobacter aerogenes and Pseudomonas aeruginosa in pulp substrates that had been buffered at pH 7.0 and 8.0.

SMILES: COc1ccc(C(=O)CBr)cc1Br [Compound 1, 2,3'-dibromo-4'-methoxyacetophenone]
- Observation of growth 21 days after challenge ([1]; 100 ppm w/w, challenge 1): ++ (10 or more colonies were observed)
- Observation of growth 21 days after challenge ([1]; 100 ppm w/w, challenge 2): ++ (10 or more colonies were observed)
- Observation of growth 21 days after challenge ([1]; 100 ppm w/w, challenge 3): ++ (10 or more colonies were observed)
- Observation of growth 21 days after challenge ([1]; 250 ppm w/w, challenge 1): 0
- Observation of growth 21 days after challenge ([1]; 250 ppm w/w, challenge 2): 0
- Observation of growth 21 days after challenge ([1]; 250 ppm w/w, challenge 3): 0
- Observation of growth 21 days after challenge ([1]; 500 ppm w/w, challenge 1): 0
- Observation of growth 21 days after challenge ([1]; 500 ppm w/w, challenge 2): 0
- Observation of growth 21 days after challenge ([1]; 500 ppm w/w, challenge 3): 0
- Observation of growth 21 days after challenge ([1]; 2500 ppm w/w, challenge 1): 0
- Observation of growth 21 days after challenge ([1]; 2500 ppm w/w, challenge 2): 0
- Observation of growth 21 days after challenge ([1]; 2500 ppm w/w, challenge 3): 0
- Observation of growth 21 days after challenge ([1]; 5000 ppm w/w, challenge 1): 0
- Observation of growth 21 days after challenge ([1]; 5000 ppm w/w, challenge 2): 0
- Observation of growth 21 days after challenge ([1]; 5000 ppm w/w, challenge 3): 0
- MIC (Chlorella pyrenoidosa; pH 7.0, 28 days): 4 µg/mL (≈ 13 µM)
- MIC (Chlorella pyrenoidosa; pH 8.0, 28 days): 2 µg/mL (≈ 6.49 µM)
- Growth of mold on the surface of interior coatings ([2]; 0.01 % by weight, alkyd, eight weeks): 5
- Growth of mold on the surface of interior coatings ([2]; 0.01 % by weight, latex, four weeks): 8
- Growth of mold on the surface of interior coatings ([2]; 0.025 % by weight, alkyd, eight weeks): 5
- Growth of mold on the surface of interior coatings ([2]; 0.025 % by weight, latex, four weeks): 8
- Growth of mold on the surface of interior coatings ([2]; 0.05 % by weight, alkyd, eight weeks): 6
- Growth of mold on the surface of interior coatings ([2]; 0.05 % by weight, latex, four weeks): 9
- Growth of mold on the surface of interior coatings ([2]; 0.10 % by weight, alkyd, eight weeks): 6
- Growth of mold on the surface of interior coatings ([2]; 0.10 % by weight, latex, four weeks): 9
- Growth of mold on the surface of interior coatings ([2]; 0.25 % by weight, alkyd, eight weeks): 7
- Growth of mold on the surface of interior coatings ([2]; 0.25 % by weight, latex, four weeks): 10
- Growth of mold on the surface of interior coatings ([2]; 0.50 % by weight, alkyd, eight weeks): 7
- Growth of mold on the surface of interior coatings ([2]; 0.50 % by weight, latex, four weeks): 10
- killing at 1 ppm (Enterobacter aerogenes; pH 7.0): 31%
- killing at 1 ppm (Enterobacter aerogenes; pH 8.0): 73%
- killing at 2 ppm (Enterobacter aerogenes; pH 7.0): 25%
- killing at 2 ppm (Enterobacter aerogenes; pH 8.0): 81%
- killing at 4 ppm (Enterobacter aerogenes; pH 7.0): 38%
- killing at 4 ppm (Enterobacter aerogenes; pH 8.0): 93%
- killing at 8 ppm (Enterobacter aerogenes; pH 7.0): 0%
- killing at 8 ppm (Enterobacter aerogenes; pH 8.0): 97%
- killing at 10 ppm (Enterobacter aerogenes; pH 7.0): 10%
- killing at 10 ppm (Enterobacter aerogenes; pH 8.0): 92%
- killing at 15 ppm (Enterobacter aerogenes; pH 7.0): 18%
- killing at 15 ppm (Enterobacter aerogenes; pH 8.0): 99.8%
- killing at 20 ppm (Enterobacter aerogenes; pH 7.0): 96%
- killing at 20 ppm (Enterobacter aerogenes; pH 8.0): 100%
- killing at 25 ppm (Enterobacter aerogenes; pH 7.0): 99%
- killing at 25 ppm (Enterobacter aerogenes; pH 8.0): 97.8%
- bactericidal activity (in words) (Enterobacter aerogenes; at both neutral and alkaline pH, conclusion from Table 2 (E. aerogenes and P. aeruginosa)): good bactericides
